According to patent US20240208912A1 (Mirati Therapeutics, Inc., priority 2021, published 2024):
Where two headings read alike, the source gives them in different places.

Molecular target: T1, PRMT5/MEP50 complex (Homo sapiens, UniProt O14744)
T1 construct: purchased Reaction Biology Corporation
Test: PRMT5:MEP50 HotSpot Assay (full-length histone H2A substrate, plus and minus MTA)
Format: biochemical
Experimental: The PRMT5 inhibitory activity of compounds of the present invention was determined using either a PRMT5:MEP50 FlashPlate Assay (Reaction Biology Corporation) or a PRMT5:MEP50 HotSpot Assay (Reaction Biology Corporation).
The assay uses recombinant full-length hi stone H2A as the PRMT5 substrate. […] The reaction was stopped and transferred to filter paper for detection. The amount of tritiated H2A in each sample was determined using a scintillation counter.

[1] = IC50 + 2 μM MTA, in the presence of 2 μM MTA

T1 sequence (O14744 2-637 limits assumed): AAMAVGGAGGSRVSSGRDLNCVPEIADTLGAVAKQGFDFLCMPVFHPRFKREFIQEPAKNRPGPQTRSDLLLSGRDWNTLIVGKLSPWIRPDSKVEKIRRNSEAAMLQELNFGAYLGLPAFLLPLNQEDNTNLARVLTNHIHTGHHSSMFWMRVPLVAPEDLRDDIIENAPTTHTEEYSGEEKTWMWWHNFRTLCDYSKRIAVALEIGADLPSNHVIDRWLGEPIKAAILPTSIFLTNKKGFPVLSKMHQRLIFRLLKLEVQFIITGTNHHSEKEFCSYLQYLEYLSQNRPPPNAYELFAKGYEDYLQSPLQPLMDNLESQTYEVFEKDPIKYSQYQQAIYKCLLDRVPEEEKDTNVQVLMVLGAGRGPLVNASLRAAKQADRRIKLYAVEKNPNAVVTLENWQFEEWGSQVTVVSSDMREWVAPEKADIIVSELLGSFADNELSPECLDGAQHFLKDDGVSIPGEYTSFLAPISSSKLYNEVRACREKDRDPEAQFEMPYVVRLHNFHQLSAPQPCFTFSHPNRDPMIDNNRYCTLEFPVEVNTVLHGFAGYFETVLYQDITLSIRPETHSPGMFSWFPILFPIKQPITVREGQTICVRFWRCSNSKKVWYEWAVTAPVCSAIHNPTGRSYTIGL
T1 sequence (Q9BQA1 2-342 partner limits assumed): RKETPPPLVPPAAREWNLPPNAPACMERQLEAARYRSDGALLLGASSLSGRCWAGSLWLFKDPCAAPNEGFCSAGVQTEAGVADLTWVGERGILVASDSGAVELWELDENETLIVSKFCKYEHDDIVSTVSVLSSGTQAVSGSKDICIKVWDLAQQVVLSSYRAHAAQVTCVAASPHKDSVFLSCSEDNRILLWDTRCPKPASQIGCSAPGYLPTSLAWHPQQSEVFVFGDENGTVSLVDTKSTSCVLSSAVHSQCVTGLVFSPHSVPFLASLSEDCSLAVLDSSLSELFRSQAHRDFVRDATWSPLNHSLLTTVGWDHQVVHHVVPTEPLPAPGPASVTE

Compound | IC50 [1] [nM] | IC50 (read-out: IC50 + 2 μM MTA, in the presence of 2 μM MTA) [nM]
Cn1ncc(-c2ccc3c(=O)[nH]nc(CN)c3c2)c1-c1c(C#N)cc2[nH]cnc2c1Cl (atropisomer, axis not shown; (M)) [Example 16-115, (M)-5-(4-(4-(aminomethyl)-1-oxo-1,2-dihydrophthalazin-6-yl)-1-methyl-1H-pyrazol-5-yl)-4-chloro-1H-benzo[d]imidazole-6-carbonitrile] | 8720 | 
Cn1ncc(-c2ccc3c(=O)[nH]nc(CN)c3c2)c1-c1c(Cl)ccc(OC2CC2)c1C#N (atropisomer, axis not shown; (M)) [Example 16-132, (M)-2-(4-(4-(aminomethyl)-1-oxo-1,2-dihydrophthalazin-6-yl)-1-methyl-1H-pyrazol-5-yl)-3-chloro-6-cyclopropoxybenzonitrile] | 251 | 
Cn1ncc(-c2ccc3c(=O)[nH]nc(CN)c3c2)c1-c1c(F)cc(S(F)(F)(F)(F)F)cc1C#N (atropisomer, axis not shown; (M)) [Example 16-134, (M)-2-(4-(4-(aminomethyl)-1-oxo-1,2-dihydrophthalazin-6-yl)-1-methyl-1H-pyrazol-5-yl)-3-fluoro-5-(pentafluoro-16-sulfanyl)benzonitrile] | 955 | 
Cn1ncc(-c2ccc3c(=O)[nH]nc(CN)c3c2)c1-c1c(F)cnc(OC2CC2)c1C#N (atropisomer, axis not shown; (M)) [Example 16-136, (M)-4-(4-(4-(aminomethyl)-1-oxo-1,2-dihydrophthalazin-6-yl)-1-methyl-1H-pyrazol-5-yl)-2-cyclopropoxy-5-fluoronicotinonitrile] | 393 | 
Cn1ncc(-c2ccc3c(=O)[nH]nc(CN)c3c2)c1-c1c(C2COC2)ccc2c1COC2 (atropisomer, axis not shown; (M)) [Example 16-138, (M)-4-(aminomethyl)-6-(1-methyl-5-(5-(oxetan-3-yl)-1,3-dihydroisobenzofuran-4-yl)-1H-pyrazol-4-yl)phthalazin-1(2H)-one] |  | > 10000
Cc1cnc2cc(F)c(-c3c(-c4ccc5c(=O)[nH]nc(CN)c5c4)cnn3C)c(C#N)c2c1 (atropisomer, axis not shown; (P)) [Example 16-36, (P)-6-[4-[4-(aminomethyl)-1-oxo-2H-phthalazin-6-yl]-2-methyl-pyrazol-3-yl]-7-fluoro-3-methyl-quinoline-5-carbonitrile] | 543 | 
Cn1ncc(-c2ccc3c(=O)[nH]nc(CN)c3c2)c1-c1c(C#N)cc2[nH]cnc2c1Cl (atropisomer, axis not shown; (P)) [Example 16-116, (P)-5-(4-(4-(aminomethyl)-1-oxo-1,2-dihydrophthalazin-6-yl)-1-methyl-1H-pyrazol-5-yl)-4-chloro-1H-benzo[d]imidazole-6-carbonitrile] | 477 | 
Cn1ncc(-c2ccc3c(=O)[nH]nc(CN)c3c2)c1-c1c(Cl)ccc(OC2CC2)c1C#N (atropisomer, axis not shown; (P)) [Example 16-131, (P)-2-(4-(4-(aminomethyl)-1-oxo-1,2-dihydrophthalazin-6-yl)-1-methyl-1H-pyrazol-5-yl)-3-chloro-6-cyclopropoxybenzonitrile] | 347 | 
Cn1ncc(-c2ccc3c(=O)[nH]nc(CN)c3c2)c1-c1c(F)cc(S(F)(F)(F)(F)F)cc1C#N (atropisomer, axis not shown; (P)) [Example 16-133, (P)-2-(4-(4-(aminomethyl)-1-oxo-1,2-dihydrophthalazin-6-yl)-1-methyl-1H-pyrazol-5-yl)-3-fluoro-5-(pentafluoro-16-sulfanyl)benzonitrile] | 1080 | 
Cn1ncc(-c2ccc3c(=O)[nH]nc(CN)c3c2)c1-c1c(F)cnc(OC2CC2)c1C#N (atropisomer, axis not shown; (P)) [Example 16-135, (P)-4-(4-(4-(aminomethyl)-1-oxo-1,2-dihydrophthalazin-6-yl)-1-methyl-1H-pyrazol-5-yl)-2-cyclopropoxy-5-fluoronicotinonitrile] | 758 | 
Cn1ncc(-c2ccc3c(=O)[nH]nc(CN)c3c2)c1-c1c(C2COC2)ccc2c1COC2 (atropisomer, axis not shown; (P)) [Example 16-137, (P)-4-(aminomethyl)-6-(1-methyl-5-(5-(oxetan-3-yl)-1,3-dihydroisobenzofuran-4-yl)-1H-pyrazol-4-yl)phthalazin-1(2H)-one] | > 10000 | 
Cc1cc2ccccc2c(C#N)c1-c1c(-c2ccc3c(=O)[nH]nc(CN)c3c2)cnn1C (single isomer, unassigned) [Example 12-15A] | 2380 | 
Cc1cc2ccccc2c(C#N)c1-c1c(-c2ccc3c(=O)[nH]nc(CN)c3c2)cnn1C (single isomer, unassigned) [Example 12-15B] | 356 | 
Cc1c(F)c(-c2c(-c3cc(C)c4c(=O)[nH]nc(CN)c4c3)cnn2C)c(C#N)c2cc(Cl)cnc12 (single isomer, unassigned) [Example 16-107, (P)-6-(4-(4-(aminomethyl)-8-methyl-1-oxo-1,2-dihydrophthalazin-6-yl)-1-methyl-1H-pyrazol-5-yl)-3-chloro-7-fluoro-8-methylquinoline-5-carbonitrile] | 634 | 
Cc1c(F)c(-c2c(-c3cc(C)c4c(=O)[nH]nc(CN)c4c3)cnn2C)c(C#N)c2cc(Cl)cnc12 (single isomer, unassigned) [Example 16-108, (M)-6-(4-(4-(aminomethyl)-8-methyl-1-oxo-1,2-dihydrophthalazin-6-yl)-1-methyl-1H-pyrazol-5-yl)-3-chloro-7-fluoro-8-methylquinoline-5-carbonitrile] | 5 | 
Cc1c(F)c(-c2c(-c3cc(Cl)c4c(=O)[nH]nc(CN)c4c3)cnn2C)c(C#N)c2cc(Cl)cnc12 (single isomer, unassigned) [Example 16-109, (P)-6-(4-(4-(aminomethyl)-8-chloro-1-oxo-1,2-dihydrophthalazin-6-yl)-1-methyl-1H-pyrazol-5-yl)-3-chloro-7-fluoro-8-methylquinoline-5-carbonitrile] | 1370 | 
CCOc1cc(-c2cnn(C)c2-c2c(F)c(C)c3ncc(Cl)cc3c2C#N)cc2c(CN)n[nH]c(=O)c12 (single isomer, unassigned) [Example 16-112, (M)-6-(4-(4-(aminomethyl)-8-ethoxy-1-oxo-1,2-dihydrophthalazin-6-yl)-1-methyl-1H-pyrazol-5-yl)-3-chloro-7-fluoro-8-methylquinoline-5-carbonitrile] | 51 | 
Cc1c(Cl)cc(OC2CC2)c(C#N)c1-c1c(-c2ccc3c(=O)[nH]nc(CN)c3c2)cnn1C (single isomer, unassigned) [Example 16-121, (M)-2-(4-(4-(aminomethyl)-1-oxo-1,2-dihydrophthalazin-6-yl)-1-methyl-1H-pyrazol-5-yl)-4-chloro-6-cyclopropoxy-3-methylbenzonitrile] | > 10000 | 
Cc1c(Cl)cc(OC2CC2)c(C#N)c1-c1c(-c2ccc3c(=O)[nH]nc(CN)c3c2)cnn1C (single isomer, unassigned) [Example 16-122, (P)-2-(4-(4-(aminomethyl)-1-oxo-1,2-dihydrophthalazin-6-yl)-1-methyl-1H-pyrazol-5-yl)-4-chloro-6-cyclopropoxy-3-methylbenzonitrile] | 112 | 
Cn1ncc(-c2ccc3c(=O)[nH]nc(CN)c3c2)c1-c1c(Cl)c(Cl)cc(OC2CC2)c1C#N (single isomer, unassigned) [Example 16-123, (P)-2-(4-(4-(aminomethyl)-1-oxo-1,2-dihydrophthalazin-6-yl)-1-methyl-1H-pyrazol-5-yl)-3,4-dichloro-6-cyclopropoxybenzonitrile] | 4000 | 
Cn1ncc(-c2ccc3c(=O)[nH]nc(CN)c3c2)c1-c1c(Cl)c(Cl)cc(OC2CC2)c1C#N (single isomer, unassigned) [Example 16-124, (M)-2-(4-(4-(aminomethyl)-1-oxo-1,2-dihydrophthalazin-6-yl)-1-methyl-1H-pyrazol-5-yl)-3,4-dichloro-6-cyclopropoxybenzonitrile] | 70 | 
Cn1ncc(-c2ccc3c(=O)[nH]nc(CN)c3c2)c1-c1c(F)c(Cl)cc(CC2CC2)c1C#N (single isomer, unassigned) [Example 16-125, (P)-2-(4-(4-(aminomethyl)-1-oxo-1,2-dihydrophthalazin-6-yl)-1-methyl-1H-pyrazol-5-yl)-4-chloro-6-(cyclopropylmethyl)-3-fluorobenzonitrile] | 2950 | 
Cn1ncc(-c2ccc3c(=O)[nH]nc(CN)c3c2)c1-c1c(F)c(Cl)cc(CC2CC2)c1C#N (single isomer, unassigned) [Example 16-126, (M)-2-(4-(4-(aminomethyl)-1-oxo-1,2-dihydrophthalazin-6-yl)-1-methyl-1H-pyrazol-5-yl)-4-chloro-6-(cyclopropylmethyl)-3-fluorobenzonitrile] | 29 | 
Cn1ncc(-c2ccc3c(=O)[nH]nc(CN)c3c2)c1-c1c(Cl)cc2ccccc2c1C#N (single isomer, unassigned) [Example 16-127, (P)-2-(4-(4-(aminomethyl)-1-oxo-1,2-dihydrophthalazin-6-yl)-1-methyl-1H-pyrazol-5-yl)-3-chloro-1-naphthonitrile] | 347 | 
Cn1ncc(-c2ccc3c(=O)[nH]nc(CN)c3c2)c1-c1c(Cl)cc2ccccc2c1C#N (single isomer, unassigned) [Example 16-128, (M)-2-(4-(4-(aminomethyl)-1-oxo-1,2-dihydrophthalazin-6-yl)-1-methyl-1H-pyrazol-5-yl)-3-chloro-1-naphthonitrile] | 65 | 
Cn1ncc(-c2ccc3c(=O)[nH]nc(CN)c3c2)c1-c1c(C(F)F)cc2ccccc2c1C#N (single isomer, unassigned) [Example 16-129, (P)-2-(4-(4-(aminomethyl)-1-oxo-1,2-dihydrophthalazin-6-yl)-1-methyl-1H-pyrazol-5-yl)-3-(difluoromethyl)-1-naphthonitrile] | 5250 | 
